According to patent publication US20240018135A1, “COMPOUND HAVING INHIBITORY ACTIVITY AGAINST O-GLUSACASE AND USE THEREOF” (MEDIFRON DBT INC., priority 2020, published 2024):

Tests used:
[1] = biological target: Human OGA (recombinant hOGA protein) (Homo sapiens (Human), UniProt O60502); experiment: Human OGA enzyme activity assay (fluorescence, 4-Methylumbelliferyl N-acetyl-β-D-glucosaminide substrate); type: biochemical; details: for IC50: Table 1; for % of inhibition: Table 1, test concentration not given
Human OGA (recombinant hOGA protein), sequence (O60502 whole entry): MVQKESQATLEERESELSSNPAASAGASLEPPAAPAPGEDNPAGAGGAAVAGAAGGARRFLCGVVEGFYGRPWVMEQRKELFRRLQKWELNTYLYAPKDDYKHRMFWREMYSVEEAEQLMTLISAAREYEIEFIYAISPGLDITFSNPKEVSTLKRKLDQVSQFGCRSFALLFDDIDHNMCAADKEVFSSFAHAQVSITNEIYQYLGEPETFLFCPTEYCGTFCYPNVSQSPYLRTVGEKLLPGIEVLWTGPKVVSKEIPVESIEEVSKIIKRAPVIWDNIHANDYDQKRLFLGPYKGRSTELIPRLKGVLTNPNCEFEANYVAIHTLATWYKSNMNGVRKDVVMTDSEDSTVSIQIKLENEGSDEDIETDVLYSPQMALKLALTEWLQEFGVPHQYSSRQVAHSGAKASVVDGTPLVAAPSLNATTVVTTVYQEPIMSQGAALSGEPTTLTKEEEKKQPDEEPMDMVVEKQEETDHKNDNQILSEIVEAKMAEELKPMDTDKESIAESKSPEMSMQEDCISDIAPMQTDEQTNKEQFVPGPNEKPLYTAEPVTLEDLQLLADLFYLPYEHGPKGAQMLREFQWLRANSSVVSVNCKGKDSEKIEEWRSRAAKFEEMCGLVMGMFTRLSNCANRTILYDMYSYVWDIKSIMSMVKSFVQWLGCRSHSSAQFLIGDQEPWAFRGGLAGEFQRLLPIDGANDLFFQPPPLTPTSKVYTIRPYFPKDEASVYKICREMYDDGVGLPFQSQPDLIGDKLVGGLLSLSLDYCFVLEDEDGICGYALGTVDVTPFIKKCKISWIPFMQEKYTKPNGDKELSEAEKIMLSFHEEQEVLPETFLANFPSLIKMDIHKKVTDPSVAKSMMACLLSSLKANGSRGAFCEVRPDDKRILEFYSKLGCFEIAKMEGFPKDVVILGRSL

Row | IC50 [1] | % of inhibition [1] | melting point | Molecule
1 |  | 34.6% | 185 to 194 °C | CC(=O)Nc1ncc(CN2CCN(CC(=O)Oc3ccccc3)CC2)s1 [Compound A-2, phenyl 2-(4-((2-acetamidothiazol-5-yl)methyl)piperazin-1-yl)acetate]
2 |  | 62.4% | 202 to 204 °C | CC(=O)Nc1ncc(CN2CCN(CC(=O)Nc3cccc(C)c3)CC2)s1 [Compound A-5, 2-(4-((2-acetamidothiazol-5-yl)methyl)piperazin-1-yl)-N-(m-tolyl)acetamide]
3 | 1250 nM | 80.0% | 234 to 237 °C | CC(=O)Nc1ccc(NC(=O)CN2CCN(Cc3cnc(NC(C)=O)s3)CC2)cc1 [Compound A-14, N-(4-acetamidophenyl)-2-(4-((2-acetamidothiazol-5-yl)methyl)piperazin-1-yl)acetamide]
4 |  | 64.3% | 224 to 230 °C | CC(=O)Nc1ncc(CN2CCN(CC(=O)Nc3ccc(C)cn3)CC2)s1 [Compound A-17, 2-(4-((2-acetamidothiazol-5-yl)methyl)piperazin-1-yl)-N-(5-methylpyridin-2-yl) acetamide]
5 |  | 74.7% | 224 to 226 °C | CC(=O)Nc1ncc(CN2CCN(CC(=O)Nc3cnccn3)CC2)s1 [Compound A-19, 2-(4-((2-acetamidothiazol-5-yl)methyl)piperazin-1-yl)-N-(pyrazin-2-yl)acetamide]
6 | 900 nM | 97.5% | 248 to 250 °C | CC(=O)Nc1ncc(CN2CCN(CC(=O)Nc3ccc4ncccc4c3)CC2)s1 [Compound A-22, 2-(4-((2-acetamidothiazol-5-yl)methyl)piperazin-1-yl)-N-(quinolin-6-yl)acetamide]
7 |  | 71.3% | 257 to 258 °C | CC(=O)Nc1ncc(CN2CCN(CC(=O)Nc3cccc4ccccc34)CC2)s1 [Compound A-24, 2-(4-((2-acetamidothiazol-5-yl)methyl)piperazin-1-yl)-N-(naphthalen-1-yl)acetamide]
8 |  | 62.6% | 233 to 236 °C | CC(=O)Nc1ncc(CN2CCN(CC(=O)Nc3nc4ccccc4[nH]3)CC2)s1 [Compound A-26, 2-(4-((2-acetamidothiazol-5-yl)methyl)piperazin-1-yl)-N-(1H-benzo[d]imidazol-2-yl)acetamide]
9 |  | 46.2% | 248 to 249 °C | CC(=O)Nc1ncc(CN2CCN(CC(=O)Nc3nc4ccccc4s3)CC2)s1 [Compound A-27, 2-(4-((2-acetamidothiazol-5-yl)methyl)piperazin-1 yl)-N-(benzo[d]thiazol-2-yl)acetamide]
10 |  | 19.2% |  | COc1ccc2nc(NC(=O)CN3CCN(Cc4cnc(NC(C)=O)s4)CC3)sc2c1 [Compound A-28, 2-(4-((2-acetamidothiazol-5-yl)methyl)piperazin-1-yl)-N-(6-methoxybenzo[d]thiazol-2-yl)acetamide]
11 |  | 42.6% | 255 to 257 °C | CC(=O)Nc1ncc(CN2CCN(CC(=O)Nc3nc4c(Cl)cccc4s3)CC2)s1 [Compound A-30, 2-(4-((2-acetamidothiazol-5-yl)methyl)piperazin-1-yl)-N-(4-chlorobenzo[d]thiazol-2-yl)acetamide]
12 |  | 50.4% | 208 to 210 °C | CC(=O)Nc1ncc(CN2CCN(CC(=O)N(C)c3ccccc3)CC2)s1 [Compound A-31, 2-(4-((2-acetamidothiazol-5-yl)methyl)piperazin-1-yl)-N-methyl-N-phenylacetamide]
13 | 830 nM | 93.3% |  | CC(=O)Nc1ncc(CN2CCC(C(=O)NC(C)c3ccc(C)cc3)CC2)s1 (stereo not shown) [Compound B-11, 1-((2-acetamidothiazol-5-yl)methyl)-N-(1-(p-tolyl)ethyl)piperidine-4-carboxamide]

The remaining lines, values behind:

Row | Molecule | IC50 [1] | % of inhibition [1] | melting point
14 | 1-((2-acetamidothiazol-5-yl)methyl)-N-(4-fluorophenyl)piperidine-4-carboxamide [Compound B-14] | 300 nM | 89.0% | 
15 | 1-((2-acetamidothiazol-5-yl)methyl)-N-(p-tolyl)piperidine-4-carboxamide [Compound B-15] | 160 nM | 91.2% | 
16 | CC(=O)Nc1ncc(CN2CCN(CC(=O)Nc3ccccc3)CC2)s1 [Compound A-1, 2-(4-((2-acetamidothiazol-5-yl)methyl)piperazin-1-yl)-N-phenylacetamide] | 2600 nM | 78.3% | 
17 | CC(=O)Nc1ncc(CN2CCN(CC(=O)Nc3ccc(C)cc3)CC2)s1 [Compound A-3, 2-(4-((2-acetamidothiazol-5-yl)methyl)piperazin-1-yl)-N-(p-tolyl)acetamide] |  | 70.7% | 213 to 217 °C
18 | CC(=O)Nc1ncc(CN2CCN(CC(=O)Nc3ccccc3C)CC2)s1 [Compound A-4, 2-(4-((2-acetamidothiazol-5-yl)methyl)piperazin-1-yl)-N-(o-tolyl)acetamide] |  | 47.6% | 194 to 196 °C
19 | CC(=O)Nc1ncc(CN2CCN(CC(=O)Nc3ccc(C(C)C)cc3)CC2)s1 [Compound A-6, 2-(4-((2-acetamidothiazol-5-yl)methyl)piperazin-1-yl)-N-(4-isopropylphenyl) acetamide] |  | 79.2% | 173 to 176 °C
20 | COc1ccc(NC(=O)CN2CCN(Cc3cnc(NC(C)=O)s3)CC2)cc1 [Compound A-7, 2-(4-((2-acetamidothiazol-5-yl)methyl)piperazin-1-yl)-N-(4-methoxyphenyl)acetamide] | 840 nM | 84.2% | 217 to 220 °C
21 | COc1ccc(CCNC(=O)CN2CCN(Cc3cnc(NC(C)=O)s3)CC2)cc1 [Compound A-8, 2-(4-((2-acetamidothiazol-5-yl)methyl)piperazin-1-yl)-N-(4-methoxyphenethyl) acetamide] | 630 nM | 85.4% | 177 to 179 °C
22 | COc1cccc(NC(=O)CN2CCN(Cc3cnc(NC(C)=O)s3)CC2)c1 [Compound A-9, 2-(4-((2-acetamidothiazol-5 yl)methyl)piperazin-1-yl)-N-(3-methoxyphenyl) acetamide.] |  | 59.9% | 210 to 212 °C
23 | COc1ccc(NC(=O)CN2CCN(Cc3cnc(NC(C)=O)s3)CC2)cc1OC [Compound A-10, 2-(4-((2-acetamidothiazol-5-yl)methyl)piperazin-1-yl)-N-(3,4-dimethoxyphenyl)acetamide] |  | 62.4% | 182 to 184 °C
24 | CC(=O)Nc1ncc(CN2CCN(CC(=O)Nc3ccc(F)cc3)CC2)s1 [Compound A-11, 2-(4-((2-acetamidothiazol-5-yl)methyl)piperazin-1-yl)-N-(4-fluorophenyl)acetamide] | 2610 nM | 85.7% | 212 to 215 °C
25 | CC(=O)Nc1ncc(CN2CCN(CC(=O)Nc3ccc(Cl)cc3)CC2)s1 [Compound A-12] | 1990 nM | 81.6% | 232 to 236 °C
26 | CC(=O)Nc1ncc(CN2CCN(CC(=O)Nc3ccc(Cl)cc3Br)CC2)s1 [Compound A-13, 2-(4-((2-acetamidothiazol-5-yl)methyl)piperazin-1-yl)-N-(2-bromo-4-chlorophenyl)acetamide] | 1700 nM | 85.2% | 212 to 213 °C
27 | CC(=O)Nc1ncc(CN2CCN(CC(=O)Nc3ccccn3)CC2)s1 [Compound A-15, 2-(4-((2-acetamidothiazol-5-yl)methyl)piperazin-1-yl) N-(pyridin-2-yl)acetamide] |  | 90.9% | 
28 | CC(=O)Nc1ncc(CN2CCN(CC(=O)Nc3cccc(C)n3)CC2)s1 [Compound A-16] |  | 38.6% | 224 to 228 °C
29 | CC(=O)Nc1ncc(CN2CCN(CC(=O)Nc3cc(C)ccn3)CC2)s1 [Compound A-18, 2-(4-((2-acetamidothiazol-5-yl)methyl)piperazin-1-yl)-N-(4-methylpyridin-2-yl) acetamide] |  | 48.8% | 210 to 211 °C
30 | CC(=O)Nc1ncc(CN2CCN(CC(=O)NC3CCCCC3)CC2)s1 [Compound A-20, 2-(4-((2-acetamidothiazol-5-yl)methyl)piperazin-1-yl)-N-cyclohexylacetamide] | 1400 nM | 89.0% | 198 to 200 °C
31 | CC(=O)Nc1ncc(CN2CCN(CC(=O)Nc3nccs3)CC2)s1 [Compound A-21, 2-(4-((2-acetamidothiazol-5-yl)methyl)piperazin-1-yl)-N-(thiazol-2-yl)acetamide] |  | 59.1% | 237 to 240 °C
32 | CC(=O)Nc1ncc(CN2CCN(CC(=O)Nc3ccc4nccnc4c3)CC2)s1 [Compound A-23, 2-(4-((2-acetamidothiazol-5-yl)methyl)piperazin-1 yl)-N-(quinoxalin-6-yl)acetamide] |  | 70.1% | 234 to 235 °C
33 | CC(=O)Nc1ncc(CN2CCN(CC(=O)Nc3ccc4[nH]ccc4c3)CC2)s1 [Compound A-25, 2-(4-((2-acetamidothiazol-5-yl)methyl)piperazin-1-yl)-N-(1H-indol-5-yl)acetamide] |  | 59.2% | 216 to 219 °C
34 | CCOc1ccc2nc(NC(=O)CN3CCN(Cc4cnc(NC(C)=O)s4)CC3)sc2c1 [Compound A-29, 2-(4-((2-acetamidothiazol-5 yl)methyl)piperazin-1 yl)-N-(6-ethoxybenzo[d]thiazol-2-yl)acetamide] |  | 44.6% | 244 to 246 °C
35 | CC(=O)Nc1ncc(CN2CCN(CC(=O)Nc3ccccc3)CC2C)s1 (stereo not shown) [Compound A-32, 2-(4-((2-acetamidothiazol-5 yl)methyl)-3-methylpiperazin-1-yl)-N-phenylacetamide] | 240 nM | 97.0% | 174 to 176 °C
36 | CC(=O)Nc1ncc(CN2CCC(C(=O)NC(C)c3ccc4ccccc4c3)CC2)s1 (stereo not shown) [Compound B-12, 1-((2-acetamidothiazol-5 yl)methyl)-N-(1-(naphthalen-2-yl)ethyl)piperidine-4-carboxamide] | 250 nM | 96.8% | 
